According to patent publication US9217170B2, “Fluorescent detector systems for the detection of chemical perturbations in sterile storage devices” (Blood Cell Storage, Inc., priority 2004, dated 2015):
Like-named read-outs stand apart in the source and are kept apart here. One block for each compound: values may come before it.

Experiments:
[1] = pKa determination from fluorescence emission spectra of SNAFL analogs; details: phosphate buffer, pH 6
Experimental: (§1) Absorbance was measured at pH 6, 8, and 10: acid (pH 6) gave two bands of similar absorbance; pH 10 gave a single λmax (base). The emission spectra were determined by excitation at the absorbance λmax (base). The wavelength where emission spectra crossed is reported as λiso. The emission λmax was measured at pH 10. pKa was determined from fluorescence emission spectra.
(§2) Fluorescence versus pH of various SNAFL free acids were compared using an Ocean Optics USB2000 fiber optic spectrometer and a tungsten halogen light source (part number HL-2000 FHSA). The light source was equipped with a linear variable filter that allowed the wavelength and shape of the excitation beam to be adjusted. […] A cuvette holder (part number CUV-FL-DA) was directly attached to the light source and a fiber optic cable directed emitted light to the spectrometer. Excitation conditions are reported for each fluorescence spectrum (3000 msec irradiation at the indicated wavelength). Spectral data were collected on a personal computer using the Ocean Optics software and overlays of different spectra were captured. […]
(§3) The pH at which two molecular species (tautomers) are equally represented is defined as the pKa. […] The intensity of fluorescence at the emission maxima is divided by 2, and pH of the intersecting pH curve is calculated by interpolation between the nearest 2 curves.

[2] = pH 6
Experimental: as §1, §2, §3

[3] = published / literature value; cited from earlier work

pKa [1]: 6.6
Compound: O=C(O)CCc1cc2c(-c3ccccc3C(=O)O)c3ccc4cc(O)c(Cl)cc4c3oc-2cc1=O [EBIO-3, 2-(2-chloro-3-hydroxy-9-carboxyethyl-10-oxo-10H-benzo[c]xanthen-7-yl)benzoic acid]

pKa [2]: 7.6
Compound: 5′(and 6′)-carboxy-3,10-dihydroxy-spiro[7H-benzo[c]xanthene-7,1′(3′H)-isobenzofuran]-3′-one [SNAFL-1]

Compound: O=S1(=O)OC2(c3ccccc31)c1ccc3cc(O)ccc3c1Oc1c2ccc2cc(O)ccc12 [VITABLUE]
pKa [3]: 7.56
